Test results as given in the CheMixHub viscosity set.

Assay: xn = mol fraction of the nth substance listed

O=S(=O)(O)O + O
100 kPa
Settings | viscosity [mPa·s]
303.15 K, x1 = 0.007147 | 0.8615
313.15 K, x1 = 0.0566 | 1.125

C[Si]1(C)O[Si](C)(C)O[Si](C)(C)O[Si](C)(C)O1 + CCCCCCCCCCCC
viscosity [mPa·s], 103 kPa
Settings | 298.15 K | 308.15 K | 318.15 K
x1 = 0.05 | 1.314 | 1.107 | 0.951
x1 = 0.1 | 1.32 | 1.113 | 0.962
x1 = 0.15 | 1.342 | 1.132 | 0.972
x1 = 0.2 | 1.352 | 1.141 | 0.982
x1 = 0.25 | 1.366 | 1.153 | 0.991
x1 = 0.3 | 1.384 | 1.167 | 1
x1 = 0.35 | 1.402 | 1.183 | 1.012
x1 = 0.3999 | 1.431 | 1.202 | 1.028
x1 = 0.45 | 1.454 | 1.225 | 1.048
x1 = 0.5 | 1.489 | 1.251 | 1.068
x1 = 0.5501 | 1.517 | 1.278 | 1.089
x1 = 0.6 | 1.554 | 1.309 | 1.114
x1 = 0.65 | 1.6 | 1.345 | 1.142
x1 = 0.6999 | 1.643 | 1.38 | 1.173
x1 = 0.75 | 1.7 | 1.426 | 1.209
x1 = 0.7999 | 1.759 | 1.473 | 1.248
x1 = 0.85 | 1.828 | 1.523 | 1.292
x1 = 0.9 | 1.91 | 1.588 | 1.343
x1 = 0.95 | 1.985 | 1.652 | 1.39

ClCCCl + CC#N
101.33 kPa
Settings | viscosity [mPa·s]
298 K, x2 = 0.0717 | 0.754
298 K, x2 = 0.1909 | 0.698
298 K, x2 = 0.2938 | 0.65
298 K, x2 = 0.3884 | 0.607
298 K, x2 = 0.4948 | 0.558
298 K, x2 = 0.5896 | 0.515
298 K, x2 = 0.6957 | 0.468
298 K, x2 = 0.7981 | 0.425
298 K, x2 = 0.8955 | 0.385
303.15 K, x2 = 0.113 | 0.674
303.15 K, x2 = 0.1744 | 0.6458
303.15 K, x2 = 0.2643 | 0.6069
303.15 K, x2 = 0.3563 | 0.5679
303.15 K, x2 = 0.4072 | 0.5471
303.15 K, x2 = 0.543 | 0.4921
303.15 K, x2 = 0.6825 | 0.4372
303.15 K, x2 = 0.8073 | 0.3903
303.15 K, x2 = 0.8792 | 0.3647
303.15 K, x2 = 0.9181 | 0.3513

COCC(C)OCC(C)OC (stereo not drawn) + CCCCCO
Settings | viscosity [mPa·s]
298.15 K, 101 kPa, x1 = 0.4941 | 1.345

CCC(C)Br (stereo not drawn) + CCCCO
viscosity [mPa·s], 101.3 kPa
Settings | x1 = 0.1031 | x1 = 0.2031 | x1 = 0.3016 | x1 = 0.4044 | x1 = 0.5054 | x1 = 0.5983 | x1 = 0.7019 | x1 = 0.8026 | x1 = 0.9
298.15 K | 2.035 | 1.634 | 1.325 | 1.097 | 0.9278 | 0.8012 | 0.7037 | 0.6308 | 0.5835
313.15 K | 1.426 | 1.174 | 0.9794 | 0.8345 | 0.7206 | 0.6389 | 0.5736 | 0.523 | 0.4876

CCNc1ccccc1 + CC(C)(C)O
viscosity [mPa·s], 101 kPa
Settings | 303.15 K | 308.15 K
x1 = 0.0789 | 3.287 | 2.6
x1 = 0.1325 | 3.222 | 2.566
x1 = 0.1974 | 3.139 | 2.522
x1 = 0.2562 | 3.061 | 2.478
x1 = 0.3315 | 2.957 | 2.414
x1 = 0.4056 | 2.848 | 2.343
x1 = 0.4868 | 2.717 | 2.256
x1 = 0.5626 | 2.59 | 2.167
x1 = 0.6195 | 2.488 | 2.096
x1 = 0.6889 | 2.359 | 2.003
x1 = 0.7514 | 2.241 | 1.916
x1 = 0.8214 | 2.102 | 1.815
x1 = 0.8914 | 1.96 | 1.71
